Results taken from ChEMBL document CHEMBL4627336, “Inhibitory effects of biseokeaniamide A against lipopolysaccharide-induced signal transduction” (Bioorg Med Chem Lett, 2020).
The source made the active and inactive calls. No cut-off for these calls is given here. Where a SMILES comes first, the peptide text is derived from it. Bridges are numbered along the chain shown (N, C = ends). [ ]: non-standard residue; d: D form. The star is where a group is joined. NMeF = CN[C@@H](Cc1ccccc1)C(=O)O; NMeV = CN[C@H](C(=O)O)C(C)C; X2 = CC[C@H](C)CCCCC(=O)*; dDab = NCC[C@@H](N)C(=O)O; Dab = NCC[C@H](N)C(=O)O; Butyryl = CCCC(=O)*; X1 = CN(Cc1nccs1)*

Tests used:
RAW264.7 [1] = assay: Inhibition of LPS-induced degraded IkappaBalpha regeneration in mouse RAW264.7 cells at 10 uM measured upto 90 mins by Western blot analysis; assay type: functional, cell-based
RAW264.7 [2] = assay: Inhibition of LPS-induced IL-1beta production in mouse RAW264.7 cells preincubated for 1 hr followed by LPS stimulation and measured after 24 hrs by ELISA; assay type: functional, cell-based
RAW264.7 [3] = assay: Inhibition of LPS-induced IL-6 production in mouse RAW264.7 cells at 1 to 30 uM preincubated for 1 hr followed by LPS stimulation and measured after 24 hrs by ELISA; assay type: functional, cell-based
RAW264.7 [4] = assay: Cytotoxicity against mouse RAW264.7 cells assessed as reduction in cell viability upto 30 uM incubated for 24 hrs in presence of LPS by MTT assay; assay type: cell-based; conditions: raw264.7, 24 h
RAW264.7 [5] = assay: Inhibition of LPS-induced NO production in mouse RAW264.7 cells preincubated for 1 hr followed by LPS stimulation and measured after 24 hrs by Griess reagent based assay; assay type: functional, cell-based
RAW264.7 [6] = assay: Inhibition of LPS-induced TNFalpha production in mouse RAW264.7 cells at 1 to 30 uM preincubated for 1 hr followed by LPS stimulation and measured after 24 hrs by ELISA; assay type: functional, cell-based
RAW264.7 [7] = assay: Inhibition of LPS-induced iNOS expression in mouse RAW264.7 cells at preincubated for 1 hr followed by LPS stimulation and measured after 24 hrs by Western blot analysis; assay type: functional, cell-based
RAW264.7 [8] = assay: Inhibition of LPS-induced IkappaBalpha degradation in mouse RAW264.7 cells at 1 to 30 uM incubated for 30 mins by Western blot analysis; assay type: functional, cell-based
RAW264.7 [9] = assay: Inhibition of LPS-induced iNOS expression in mouse RAW264.7 cells at 1 uM preincubated for 1 hr followed by LPS stimulation and measured after 24 hrs by Western blot analysis relative to control; assay type: functional
RAW264.7 [10] = assay: Inhibition of LPS-induced IL-1beta production in mouse RAW264.7 cells at 1 uM preincubated for 1 hr followed by LPS stimulation and measured after 24 hrs by ELISA; assay type: functional, cell-based
RAW264.7 [11] = assay: Inhibition of LPS-induced NO production in mouse RAW264.7 cells at 0.1 to 10 uM preincubated for 1 hr followed by LPS stimulation and measured after 24 hrs by Griess reagent based assay; assay type: functional, cell-based
RAW264.7 [12] = assay: Inhibition of LPS-induced IkappaBalpha degradation in mouse RAW264.7 cells at 1 uM incubated for 30 mins by Western blot analysis; assay type: functional, cell-based
RAW264.7 [13] = assay: Inhibition of LPS-induced TNFalpha production in mouse RAW264.7 cells at 1 uM preincubated for 1 hr followed by LPS stimulation and measured after 24 hrs by ELISA; assay type: functional, cell-based
RAW264.7 [14] = assay: Inhibition of LPS-induced IL-6 production in mouse RAW264.7 cells at 1 uM preincubated for 1 hr followed by LPS stimulation and measured after 24 hrs by ELISA; assay type: functional, cell-based

## CCCC(=O)N(C)[C@H](C(=O)N1CCC[C@H]1C(=O)N(C)[C@@H](Cc1ccccc1)C(=O)N[C@@H](CC(C)C)C(=O)N(C)[C@H](C(=O)N(C)Cc1nccs1)C(C)C)C(C)C (Butyryl-[NMeV]P[NMeF]L[NMeV]-X1)
RAW264.7 [1]
  inhibition: Active
RAW264.7 [2]
  IC50: 14.5 µM
  inhibition: Dose-dependent effect
RAW264.7 [3]
  inhibition: inactive
RAW264.7 [4]
  Activity: Non-Toxic
RAW264.7 [5]
  IC50: 6.47 µM
  inhibition: Dose-dependent effect
RAW264.7 [6]
  inhibition: inactive
RAW264.7 [7]
  inhibition: Dose-dependent effect
RAW264.7 [8]
  inhibition: inactive

## CC[C@H](C)CCCCC(=O)N[C@@H](CCN)C(=O)N[C@H](C(=O)N[C@@H](CCN)C(=O)N[C@H]1CCNC(=O)[C@H]([C@@H](C)O)NC(=O)[C@H](CCN)NC(=O)[C@H](CCN)NC(=O)[C@H](CC(C)C)NC(=O)[C@@H](Cc2ccccc2)NC(=O)[C@H](CCN)NC1=O)[C@@H](C)O (X2-[Dab]T[Dab][Dab][Dab][dF]L[Dab][Dab]T; lactam 4-C)
RAW264.7 [9]
  inhibition at 1 µM: 100%

## CC[C@H](C)CCCCC(=O)N[C@@H](CCN)C(=O)N[C@H](C(=O)N[C@@H](CCN)C(=O)N[C@H]1CCNC(=O)[C@H]([C@@H](C)O)NC(=O)[C@H](CCN)NC(=O)[C@H](CCN)NC(=O)[C@H](CC(C)C)NC(=O)[C@@H](Cc2ccccc2)NC(=O)[C@@H](CCN)NC1=O)[C@@H](C)O (X2-[Dab]T[Dab][Dab][dDab][dF]L[Dab][Dab]T; lactam 4-C)
RAW264.7 [10]
  inhibition: Active
RAW264.7 [11]
  inhibition: Active
RAW264.7 [12]
  inhibition: Active
RAW264.7 [13]
  inhibition: Active
RAW264.7 [14]
  inhibition: Active
